What was measured:
[1] = tested on: Bovine viral diarrhea virus (BVDV) (strain NADL); assay: Assay for inhibition of BVDV; assay type: cell-based; details: MDBK cells
Protocol: Bovine viral diarrhea virus (BVDV) (strain NADL) was provided by Dr. Ruben Donis and propagated in MDBK cells (ATCC). The nucleoside libraries and compounds were tested utilizing the modified protocol (V. B. Vassilev, M. S. Collett, R. O. Donis, J. Viol. 1997, 71, 471–478; S. G. Bagginski, D. C. Pevear, M. Seipel, S. C. C. Sun, C. A. Benetatos, S. K. Chunduru, C. M. Rice, M. S. Collett, Proc. Natl. Acad. Sci. U.S.A. 2000, 97, 7981–7986)

[2] = tested on: HCV replicon RNA in replicon cells (Huh-7); assay: HCV replicon assay; assay type: cell-based; details: Huh-7 replicon cells, 3 days incubation, reduction of HCV RNA (Quantigene)
Protocol: The replicon cells (Huh-7) contain replicating HCV replicon RNA, which was modified in the structural region (replacing the structural region with a neomycin resistance marker). Survival of the replicon cells under G418 selection relies on the replication of HCV RNA and subsequently expression of neomycin phosphoryltransferase. The ability of modified nucleoside libraries and compounds to suppress HCV RNA replication was determined using the Quantigene Assay Kit from Bayer. The assay measures the reduction of HCV RNA molecules in the treated cells. Replicon cells were incubated at 37° C. for 3 days in the presence of nucleoside libraries and compounds before harvested for detection. HCV subgenomic replicon cell line was provided by Dr. Bartenschlager. The assay protocol was modified based on literature procedure (V. Lohmann, F. Korner, J. O. Koch, U. Herian, L. Theilmann, R. Bartenschlager, Science, 1999, 285, 110–113).

C[C@@]1(O)[C@H](O)[C@@H](CO)O[C@H]1n1cnc2c(NCCO)ncnc21 [Compound S1-9, N^6-[2-(Hydroxy)ethyl]-9H-(2′-β-C-methyl-β-D-ribofuranosyl)adenine]
EC50 [1]: > 100 µM
EC50 [2]: 10 to 100 µM

C[C@@]1(O)[C@H](O)[C@@H](CO)O[C@H]1n1cnc2c(NNS(C)(=O)=O)ncnc21 [Compound S1-18]
EC50 [1]: 25 to 100 µM
EC50 [2]: < 10 µM

N^6-(2-Phenylpropyl)-9H-(2′-β-C-methyl-β-D-ribofuranosyl)adenine [Compound S1-5]
EC50 [1]: > 100 µM
EC50 [2]: > 100 µM

CON(C)c1ncnc2c1ncn2[C@@H]1O[C@H](CO)[C@@H](O)[C@@]1(C)O [Compound S1-20, 6-(N,O-Dimethylhydroxylamine)-9H-(2′-β-C-methyl-β-D-ribofuranosyl)purine]
EC50 [1]: > 100 µM
EC50 [2]: 10 to 100 µM

CN(N)c1ncnc2c1ncn2[C@@H]1O[C@H](CO)[C@@H](O)[C@@]1(C)O [Compound S1-15, 6-(N^1-methylhydrazino)-9H-(2′-β-C-methyl-β-D-ribofuranosyl)purine]
EC50 [1]: > 100 µM
EC50 [2]: < 10 µM

CN(C)Nc1ncnc2c1ncn2[C@@H]1O[C@H](CO)[C@@H](O)[C@@]1(C)O [Compound S1-12, 6-(N,N-Dimethylhydrazino)-9H-(2′-β-C-methyl-β-D-ribofuranosyl)purine]
EC50 [1]: < 25 µM
EC50 [2]: < 10 µM

C[C@@]1(O)[C@H](O)[C@@H](CO)O[C@H]1n1cnc2c(NCCN)ncnc21 [Compound S2-1, N^6-(2-Aminoethyl)-9H-(2′-β-C-methyl-β-D-ribofuranosyl)adenine]
EC50 [1]: 25 to 100 µM
EC50 [2]: < 10 µM

C[C@@]1(O)[C@H](O)[C@@H](CO)O[C@H]1n1cnc2c(N(N)CCO)ncnc21 [Compound S1-13, 6-[N^1-(Hydroxyethyl)hydrazino]-9H-(2′-β-C-methyl-β-D-ribofuranosyl)purine]
EC50 [1]: > 100 µM
EC50 [2]: < 10 µM

C[C@@]1(O)[C@H](O)[C@@H](CO)O[C@H]1n1cnc2c(NC[C@H]3CCCO3)ncnc21 [Compound S1-6, N^6-(R-Tetrahydrofurfuryl)-9H-(2′-β-C-methyl-β-D-ribofuranosyl)adenine]
EC50 [1]: > 100 µM
EC50 [2]: > 100 µM

COC(=O)NNc1ncnc2c1ncn2[C@@H]1O[C@H](CO)[C@@H](O)[C@@]1(C)O [Compound S1-16]
EC50 [1]: 25 to 100 µM
EC50 [2]: < 10 µM

C[C@@]1(O)[C@H](O)[C@@H](CO)O[C@H]1n1cnc2c(NN)ncnc21 [Compound S1-11, 6-(Hydrazinyl)-9H-(2′-β-C-methyl-β-D-ribofuranosyl)purine]
EC50 [1]: 25 to 100 µM
EC50 [2]: < 10 µM

CCOc1ccccc1CNc1ncnc2c1ncn2[C@@H]1O[C@H](CO)[C@@H](O)[C@@]1(C)O [Compound S1-7, N^6-(2-Ethoxybenzyl)-9H-(2′-β-C-methyl-β-D-ribofuranosyl)adenine]
EC50 [1]: > 100 µM
EC50 [2]: 10 to 100 µM

C[C@@]1(O)[C@H](O)[C@@H](CO)O[C@H]1n1cnc2c(NNC=O)ncnc21 [Compound S1-14, 6-[(N^2-formyl)hydrazino]-9H-(2′-β-C-methyl-β-D-ribofuranosyl)purine]
EC50 [1]: > 100 µM
EC50 [2]: 10 to 100 µM

CSc1cccc(Nc2ncnc3c2ncn3[C@@H]2O[C@H](CO)[C@@H](O)[C@@]2(C)O)c1 [Compound S1-4, N^6-[3-(Methylthio)phenyl]-9H-(2′-β-C-methyl-β-D-ribofuranosyl)adenine]
EC50 [1]: > 100 µM
EC50 [2]: > 100 µM

CC1(C)OCC(CNc2ncnc3c2ncn3[C@@H]2O[C@H](CO)[C@@H](O)[C@@]2(C)O)O1 (stereo partly drawn) [Compound S1-8, N^6-(2,2-Dimethyl-1,3-dioxolane-4-methyl)-9H-(2′-β-C-methyl-β-D-ribofuranosyl)adenine]
EC50 [1]: > 100 µM
EC50 [2]: > 100 µM

CC(C)(C)OC(=O)NOc1ncnc2c1ncn2[C@@H]1O[C@H](CO)[C@@H](O)[C@@]1(C)O [Compound S1-21, 6-(N-(t-Butyloxycarbonyl)aminoxy]-9H-(2′-β-C-methyl-β-D-ribofuranosyl)purine]
EC50 [1]: > 100 µM
EC50 [2]: < 10 µM

CC(=O)NNc1ncnc2c1ncn2[C@@H]1O[C@H](CO)[C@@H](O)[C@@]1(C)O [Compound S1-17, 6-[N^2-(Acetyl)hydrazino]-9H-(2′-β-C-methyl-β-D-ribofuranosyl)purine]
EC50 [1]: < 25 µM
EC50 [2]: < 10 µM

C[C@@]1(O)[C@H](O)[C@@H](CO)O[C@H]1n1cnc2c(NCCNc3ncnc4c3ncn4[C@@H]3O[C@H](CO)[C@@H](O)[C@@]3(C)O)ncnc21 [Compound S2-2, N,N′-Bis[N^6-9H-(2′-β-C-methyl-β-D-ribofuranosyl)adenin-6-yl]ethylenediamine]
EC50 ([1]; Bovine viral diarrhea virus isolates and strains): > 100 µM
EC50 ([2]; Hepatitis C virus, 72 h): 10 to 100 µM

C[C@@]1(O)[C@H](O)[C@@H](CO)O[C@H]1n1cnc2c(ONC(=O)OCc3ccccc3)ncnc21 [Compound S1-22, 6-[(N-Benzyloxycarbonyl)aminoxy]-9H-(2′-β-C-methyl-β-D-ribofuranosyl)purine]
EC50 [1]: > 100 µM
EC50 [2]: < 10 µM

C[C@@]1(O)[C@H](O)[C@@H](CO)O[C@H]1n1cnc2c(NO)ncnc21 [Compound S1-19, 6-Hydroxyamino-9H-(2′-β-C-methyl-β-D-ribofuranosyl)purine]
EC50 [1]: 25 to 100 µM
EC50 [2]: < 10 µM
